Measured values taken from patent US7449477B2, “7-phenyl-isoquinoline-5-sulfonylamino derivatives as inhibitors of akt (protein kinase B)” (Eli Lilly and Company, priority 2003, dated 2008).
pIC50: −log10 of the molar value. Structures can show the parent of a compound that is named as a salt.

Target: T1, active human Akt1 (Homo sapiens, UniProt P31749)
T1 construct: Active human recombinant Akt1 (full-length) purified from Sf9 insect cells; purchased Upstate Biotechnology, Inc. 14-276; host or cells: Sf9 insect cells
Experiment: Akt1 Phosphorylation Assay (phosphocellulose filter-binding, 33P-Crosstide)
Type: biochemical
Settings: active human recombinant Akt1 (full-length) 10 nM; 12.5 μM Crosstide; 20 μM ATP; 30 minutes at room temperature
Procedure: Akt1 Phosphorylation Assay
The assay described measures the phosphorylation of Crosstide by active human Akt1 and other Akt isoforms. Crosstide contains a consensus sequence derived from Akt substrates GSK3b and forkhead transcription factors (FKs). The ^33P-labeled Crosstide substrate is captured by phosphocellulose membrane filter plates.
Active human recombinant Akt1 (full-length) purified from Sf9 insect cells is from Upstate Biotechnology, Inc. (Cat. #14-276, 405 μg/ml). Crosstide substrate, NH2-GRPRTSSFAEG-COOH (M.W.1164) is purchased from Multiple Peptide System (Cat. # L59/GR145-153).
Solution (A): 20% DMSO (dimethylsulphoxide) or Compound in 20% DMSO; Solution (B): Assay Buffer Mix: 31.25 μM Crosstide, 37.5 mM MgCl2, 87.5 mM HEPES, pH 7.3, 50 μM ATP γ-^33P-ATP, 0.05 μCi/μl; Solution (C): Akt Kinase Mix: 31.25 mM HEPES, pH 7.3; 1 mM DTT, 25 nM UBI Akt1.
Procedure for Phosphocellulose Filter-Binding Assay
Ten μl of Solution (A) are first mixed with 20 μl Solution (B). The enzymatic reaction is initiated by adding 20 μl Solution (C) to the mixture. (Final concentration or amount in a 50-μl reaction mix: 4% DMSO or various compound concentration in 4% DMSO; 12.5 μM Crosstide; 15 mM MgCl2; 35 mM HEPES, pH7.3; 20 μM ATP; 1 μCi γ-^33P-ATP; 0.4 mM DTT; 10 nM UBI Akt1.) The reactions are performed in 96-well microtiter plates.
After 30 minutes at room temperature, the reaction is terminated by adding 80 μl of 10% H3PO4. An aliquot of 100 μl from each well is transferred to the phosphocellulose filter plate (Millipore MultiScreen, Catalog #MAPHN0B50). After 30 minutes, the reaction mix is filtered with a Millipore manifold following by 3 washes with 0.5% H3PO4. The filter is then vacuum-dried and the plate is fitted onto a Packard carrier. 100 μl/well Microscint20 are added and the contents are counted in a Packard Top Count.

T1 sequence (P31749 whole entry): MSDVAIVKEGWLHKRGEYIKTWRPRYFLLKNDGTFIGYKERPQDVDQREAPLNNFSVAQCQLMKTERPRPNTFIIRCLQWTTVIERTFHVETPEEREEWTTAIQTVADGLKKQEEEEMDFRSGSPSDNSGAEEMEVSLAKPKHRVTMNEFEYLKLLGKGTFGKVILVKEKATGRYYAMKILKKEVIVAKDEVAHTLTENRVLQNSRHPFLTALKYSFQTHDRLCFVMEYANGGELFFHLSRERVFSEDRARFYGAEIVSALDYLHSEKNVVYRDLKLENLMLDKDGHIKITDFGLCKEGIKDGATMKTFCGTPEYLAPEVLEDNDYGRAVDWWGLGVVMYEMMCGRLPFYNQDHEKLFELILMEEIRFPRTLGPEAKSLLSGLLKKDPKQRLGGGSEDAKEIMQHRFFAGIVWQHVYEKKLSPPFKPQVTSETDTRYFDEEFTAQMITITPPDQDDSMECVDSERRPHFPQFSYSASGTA

SMILES | pIC50
O=C(Nc1ccc(CCCNCCNS(=O)(=O)c2cc(-c3ccccc3)cc3cnccc23)cc1)C1CC1 [Example 25, 7-Phenyl-isoquinoline-5-sulfonic acid {2-[3-(4-(cyclopropyl-carbonylamino)phenyl)-propylamino]-ethyl}-amide, dihydrochloride salt] | ≥ 5.70
CC1CN(c2cc(Cl)ccc2CCCNCCNS(=O)(=O)c2cc(-c3ccccc3)cc3cnccc23)CCN1 (stereo not shown) [Example 54, 7-Phenyl-isoquinoline-5-sulfonic acid {2-[3-(4-chloro-2-(3-methyl-piperazin-1-yl)-phenyl)-propylamino]-ethyl}-amide, tetrahydrochloride salt] | ≥ 5.70
CC(=O)Nc1ccc(CCCNCCNS(=O)(=O)c2cc(-c3ccccc3)cc3cnccc23)cc1 [Example 28, 7-Phenyl-isoquinoline-5-sulfonic acid {2-[3-(4-acetamidophenyl)-propylamino]-ethyl}-amide, dihydrochloride salt] | ≥ 5.70
COc1cc([N+](=O)[O-])ccc1CCCNCCNS(=O)(=O)c1cc(-c2ccccc2)cc2cnccc12 [Example 63, 7-Phenyl-isoquinoline-5-sulfonic acid {2-[3-(2-methoxy-4-nitrophenyl)-propylamino]-ethyl}-amide, dihydrochloride salt] | ≥ 5.70
CCCNS(=O)(=O)c1ccc(CCCNCCNS(=O)(=O)c2cc(-c3ccccc3)cc3cnccc23)cc1 [Example 21, 7-Phenyl-isoquinoline-5-sulfonic acid {2-[3-(4-(N-propylamino-sulfonyl)phenyl)-propylamino]-ethyl}-amide, dihydrochloride salt] | ≥ 5.70
CN1CCN(c2cc(Cl)ccc2CCCNCCNS(=O)(=O)c2cc(-c3ccccc3)cc3cnccc23)CC1 [Example 49, 7-Phenyl-isoquinoline-5-sulfonic acid {2-[3-(4-chloro-2-(4-methyl-piperazin-1-yl)-phenyl)-propylamino]-ethyl}-amide, tetrahydrochloride salt] | ≥ 5.70
CN1CCC(Oc2cc(Cl)ccc2CCCNCCNS(=O)(=O)c2cc(-c3ccccc3)cc3cnccc23)C1 (stereo not shown) [Example 55, 7-Phenyl-isoquinoline-5-sulfonic acid {2-[3-(4-chloro-2-(1-methyl-pyrrolidin-3-yl)oxy-phenyl)-propylamino]-ethyl}-amide, trihydrochloride salt] | ≥ 5.70
O=S(=O)(NCCNCCCc1ccc(Cl)cc1N1CCNCC1)c1cc(-c2ccccc2)cc2cnccc12 [Example 44, 7-Phenyl-isoquinoline-5-sulfonic acid {2-[3-(4-chloro-2-piperazin-1-yl-phenyl)-propylamino]-ethyl}-amide, tetrahydrochloride salt] | ≥ 5.70
COc1cccc(CCCNCCNS(=O)(=O)c2cc(-c3ccccc3)cc3cnccc23)c1 [Example 31, 7-Phenyl-isoquinoline-5-sulfonic acid {2-[3-(3-methoxyphenyl)-propylamino]-ethyl}-amide, dihydrochloride salt] | ≥ 5.70
Cc1cc([N+](=O)[O-])ccc1CCCNCCNS(=O)(=O)c1cc(-c2ccccc2)cc2cnccc12 [Example 40, 7-Phenyl-isoquinoline-5-sulfonic acid {2-[3-(2-methyl-4-nitrophenyl)-propylamino]-ethyl}-amide, dihydrochloride salt] | ≥ 5.70
N#Cc1ccc(CCCNCCNS(=O)(=O)c2cc(-c3ccccc3)cc3cnccc23)cc1 [Example 33, 7-Phenyl-isoquinoline-5-sulfonic acid {2-[3-(4-cyanophenyl)-propylamino]-ethyl}-amide, dihydrochloride salt] | ≥ 5.70
CSc1ccc(CCCNCCNS(=O)(=O)c2cc(-c3ccccc3)cc3cnccc23)cc1 [Example 35, 7-Phenyl-isoquinoline-5-sulfonic acid {2-[3-(4-methylthiophenyl)-propylamino]-ethyl}-amide, dihydrochloride salt] | ≥ 5.70

Continued, values first:

pIC50 | SMILES
≥ 5.70 | COc1ccc(CCCNCCNS(=O)(=O)c2cc(-c3cccc(O)c3)cc3cnccc23)c(F)c1 [Example 110, 7-(3-Hydroxy-phenyl)-isoquinoline-5-sulfonic acid {2-[3-(2-fluoro-4-methoxy-phenyl)-propylamino]-ethyl}-amide]
≥ 5.70 | O=S(=O)(NCCNCCC(O)c1ccc(S(=O)(=O)C(F)(F)F)cc1)c1cc(-c2ccccc2)cc2cnccc12 (stereo not shown) [Example 80, 7-Phenyl-isoquinoline-5-sulfonic acid [2-(3-hydroxy-3-(4-trifuoromethanesulfonyl-phenyl)-propylamino)-ethyl]-amide, dihydrochloride salt]
≥ 5.70 | Nc1ccc(CCCNCCNS(=O)(=O)c2cc(-c3ccccc3)cc3cnccc23)cc1 [Example 72, 7-Phenyl-isoquinoline-5-sulfonic acid [2-(3-(4-aminophenyl)-propylamino)-ethyl]-amide, dihydrochloride salt]
≥ 5.70 | O=[N+]([O-])c1cccc(C(O)CCNCCNS(=O)(=O)c2cc(-c3ccccc3)cc3cnccc23)c1 (stereo not shown) [Example 77, 7-Phenyl-isoquinoline-5-sulfonic acid [2-(3-hydroxy-3-(3-nitrophenyl)-propylamino)-ethyl]-amide, dihydrochloride salt]
≥ 5.70 | O=[N+]([O-])c1ccc(C(O)CCNCCNS(=O)(=O)c2cc(-c3ccccc3)cc3cnccc23)cc1 (stereo not shown) [Example 73, 7-Phenyl-isoquinoline-5-sulfonic acid [2-(3-hydroxy-3-(4-nitrophenyl)-propylamino)-ethyl]-amide, dihydrochloride salt]
≥ 5.70 | O=S(=O)(NCCNCCCc1cccc(F)c1F)c1cc(-c2ccccc2)cc2cnccc12 [Example 68, 7-Phenyl-isoquinoline-5-sulfonic acid {2-[3-(2,3-difluorophenyl)-propylamino]-ethyl}-amide, dihydrochloride salt]
≥ 5.70 | O=[N+]([O-])c1ccc(CC(O)CNCCNS(=O)(=O)c2cc(-c3ccccc3)cc3cnccc23)cc1 (racemic) [Example 83, 7-Phenyl-isoquinoline-5-sulfonic acid [2-(2-hydroxy-3-(4-nitrophenyl)-propylamino)-ethyl]-amide, dihydrochloride salt]
≥ 5.70 | O=[N+]([O-])c1ccc(CC(O)CNCCNS(=O)(=O)c2cc(-c3ccccc3)cc3cnccc23)cc1 (single isomer, unassigned; isomer 1) [Example 85, 7-Phenyl-isoquinoline-5-sulfonic acid [2-(2-hydroxy-3-(4-nitrophenyl)-propylamino)-ethyl]-amide isomer 1, dihydrochloride salt]
≥ 5.70 | O=S(=O)(NCCNCCCc1ccc(Cl)cc1Cl)c1cc(-c2ccccc2)cc2cnccc12 [Example 65, 7-Phenyl-isoquinoline-5-sulfonic acid {2-[3-(2,4-dichlorophenyl)-propylamino]-ethyl}-amide, dihydrochloride salt]
≥ 5.70 | O=[N+]([O-])c1ccc([C@@H](O)CCNCCNS(=O)(=O)c2cc(-c3ccccc3)cc3cnccc23)cc1 [Example 82, (S)-7-Phenyl-isoquinoline-5-sulfonic acid [2-(3-hydroxy-3-(4-nitrophenyl)-propylamino)-ethyl]-amide, mesylate salt]
